# In PubChem BioAssay (NCI):
#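 Results reflect a 48-hour exposure of cells in 96-well plates to compound at five concentrations. TGI: concentration producing complete growth inhibition.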
# Columns and labels:
# Assay in all cases: DTP human tumour cell line panel, 48 h
# [1] = test system: EKVX NSCLC
# [2] = test system: OVCAR-5 ovarian
# [3] = test system: MCF7 breast
# [4] = test system: DU-145 prostate
# [5] = test system: NCI-H522 lung
# [6] = test system: OVCAR-3 ovarian
# [7] = test system: HS 578T breast
# [8] = test system: U251 CNS
# [9] = test system: HCC-2998 colon
# [10] = test system: HCT-116 colon
# [11] = test system: KM12 colon
# [12] = test system: SR leukemia
Structure (SMILES),TGI [1],TGI [2],TGI [3],TGI [4],TGI [5],TGI [6],TGI [7],TGI [8],TGI [9],TGI [10],TGI [11],TGI [12]
COc1ccc2cc(/C=N\NC(=O)Nc3ccc([N+](=O)[O-])cc3)ccc2c1,25 µM,48.6 µM,> 31.6 µM,14 µM,26.4 µM,44.1 µM,> 31.6 µM,26.6 µM,20.1 µM,16.3 µM,24.5 µM,–
COC(=O)C1=C(C(=O)OC)C(OO)(c2ccccc2)OC1=O (centres undefined),> 100 µM,> 100 µM,> 100 µM,> 100 µM,> 100 µM,> 100 µM,–,> 100 µM,> 100 µM,> 100 µM,> 100 µM,> 100 µM
CC(CC(C)[C@H]1CCC2[C@H]3C(CC(=O)[C@@]21C)[C@@]1(C)CCC(O)C[C@H]1C[C@@H]3O)C(=O)O (some centres undefined),> 100 µM,> 100 µM,> 100 µM,> 100 µM,> 100 µM,–,–,> 100 µM,> 100 µM,> 100 µM,> 100 µM,> 100 µM
Cc1ccc2nc(-c3ccc(-c4nc5ccc(C)cc5o4)c(O)c3)oc2c1,–,> 100 µM,> 100 µM,> 100 µM,–,–,> 100 µM,> 100 µM,> 100 µM,> 100 µM,–,> 100 µM
CN1C(=O)C(C#N)C2C[C@@]1(C)Oc1ccccc12 (some centres undefined),> 100 µM,> 100 µM,> 100 µM,> 100 µM,> 100 µM,> 100 µM,> 100 µM,> 100 µM,> 100 µM,> 100 µM,> 100 µM,–
O=C(/C=C/c1ccccc1Br)c1ccccc1,26.4 µM,34.2 µM,2.27 µM,20.1 µM,9.73 µM,22.1 µM,11.3 µM,2.9 µM,7.68 µM,3.85 µM,6.53 µM,–
CN(C)c1cccc(/C=C(\C#N)c2ccccc2)c1,> 100 µM,64 µM,–,33.5 µM,5.75 µM,3.29 µM,2.79 µM,27.1 µM,7.28 µM,57.5 µM,8.92 µM,> 8.15 µM
CCOC(=O)C1=C(c2ccccc2)NC(c2ccccc2)=C(C(=O)OCC)c2c1c(=O)cc[nH]c2=O,–,> 100 µM,–,–,> 100 µM,> 100 µM,–,> 100 µM,> 100 µM,> 100 µM,> 100 µM,> 100 µM
COc1ccc(-c2cc(=O)c3ccc(F)cc3[nH]2)cc1,> 100 µM,> 100 µM,–,–,> 100 µM,> 100 µM,–,–,> 100 µM,> 100 µM,> 100 µM,> 100 µM
C=CCN(N=O)C(=O)N(CCCCC(NC(C)=O)C(=O)NCc1ccccc1)Cc1ccccc1 (centres undefined),> 100 µM,> 100 µM,–,–,39.9 µM,> 100 µM,–,> 100 µM,–,–,> 100 µM,–
O=C(Nc1ccccc1[N+](=O)[O-])C(=O)C(C(=O)c1ccccc1-c1ccccc1)C1OC(=O)c2ccccc21 (centres undefined),51 µM,36.8 µM,–,–,25.3 µM,28 µM,–,24.2 µM,28.2 µM,38.4 µM,30.6 µM,49 µM
